Laboratory results from patent US20260258032A1, “TYROSINE KINASE 2 INHIBITORS AND USES THEREOF” (BIOGEN MA INC., priority 2022, published 2026).
Counter-ions that a name gives are not always drawn.

Legend:
[1] = tested on: Tyk2 kinase activity on STAT4; assay: pSTAT4 cell assay (MSD, NK92 cells); format: cell-based; details: compounds 1 hr
Method in brief: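 Read-out: phospho-STAT in NK92 lysates, MSD format, anti-STAT4 antibodies. Cells were serum-starved, given compound for 1 hr (10 μM top, four-fold, 10 points) and IL2-stimulated (30 ng/mL, 15 min). Normalized percent activity vs log concentration, 4-parameter logistic fit gave IC50.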

[2] = molecular target: T1, JH2 domain of human Tyk2 (Homo sapiens, UniProt P29597); assay: JH2 biochemical assay (TR-FRET probe displacement); format: binding
T1 construct: 10×His-tagged TYK2 JH2 domain (amino acid 575-876)
Method in brief: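 A probe-displacement TR-FRET readout: compounds, tested in 3-fold, 10-point dilutions starting at […], compete with 2 nM tracer for 2 nM His-tagged JH2 (residues 575-876) detected by 0.1 nM Tb-anti-His over 60 min. IC50 comes from 4-parameter fits of normalized 520/495 nm ratios.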

T1 sequence (P29597 575-876): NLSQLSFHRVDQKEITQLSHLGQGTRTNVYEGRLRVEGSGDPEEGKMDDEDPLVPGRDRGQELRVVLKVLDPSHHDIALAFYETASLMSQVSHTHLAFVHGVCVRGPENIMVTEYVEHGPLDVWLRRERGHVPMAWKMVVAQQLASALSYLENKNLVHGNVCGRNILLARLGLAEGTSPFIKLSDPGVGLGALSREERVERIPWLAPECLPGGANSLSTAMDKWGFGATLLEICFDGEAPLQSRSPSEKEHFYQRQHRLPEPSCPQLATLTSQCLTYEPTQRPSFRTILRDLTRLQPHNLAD

SMILES	IC50 ([1]; stimulated 15 minutes)	IC50 ([2]; JH2 biochemical assay)	IC50 ([1]; then stimulated 15 minutes)	IC50 ([2]; TR-FRET probe displacement, JH2 domain of human Tyk2)
COCC1CC(Oc2cc(C)cc(N3CC4(CC4)c4cnc(NC(C)=O)cc43)n2)C1 (stereo not shown) [Example 345, N-(1′-(6-(3-(methoxymethyl)cyclobutoxy)-4-methylpyridin-2-yl)-1′,2′-dihydrospiro[cyclopropane-1,3′-pyrrolo[3,2-c]pyridin]-6′-yl)acetamide trifluoroacetate]	≥ 1000 nM	100 to 1000 nM		
CC(=O)Nc1cc2c(cn1)C1(CC1)CN2c1cc(CC#N)nc(C(C)(F)F)n1 [Example 303, N-(1′-(6-(cyanomethyl)-2-(1,1-difluoroethyl)pyrimidin-4-yl)-1′,2′-dihydrospiro[cyclopropane-1,3′-pyrrolo[3,2-c]pyridin]-6′-yl)acetamide]	≥ 1000 nM	10 to 100 nM		
CC(=O)Nc1cc2c(cn1)C1(CC1)CN2c1cc(Oc2ccn(C)n2)nc(C(C)(F)F)n1 [Example 143, N-(1′-(2-(1,1-difluoroethyl)-6-((1-methyl-1H-pyrazol-3-yl)oxy)pyrimidin-4-yl)-1′,2′-dihydrospiro[cyclopropane-1,3′-pyrrolo[3,2-c]pyridin]-6′-yl)acetamide trifluoroacetate]	100 to 1000 nM	≤ 10 nM		
CC(=O)Nc1cc2c(cn1)C1(CC1)CN2c1cc(C)nc(N2CCC3(CC2)COC3)n1 [Example 228, N-(1′-(6-methyl-2-(2-oxa-7-azaspiro[3.5]nonan-7-yl)pyrimidin-4-yl)-1′,2′-dihydrospiro[cyclopropane-1,3′-pyrrolo[3,2-c]pyridin]-6′-yl)acetamide trifluoroacetate]	≥ 1000 nM	100 to 1000 nM		
COC1(COc2nc(C)cc(N3CC4(CC4)c4cnc(NC(C)=O)cc43)n2)CCC1 [Example 378, N-(1′-(2-((1-methoxycyclobutyl)methoxy)-6-methylpyrimidin-4-yl)-1′,2′-dihydrospiro[cyclopropane-1,3′-pyrrolo[3,2-c]pyridin]-6′-yl)acetamide]			≥ 1000 nM	100 to 1000 nM
CC(=O)Nc1cc2c(cn1)C1(CC1)CN2c1cc(C)cc(N2CCNCC2)n1 [Example 211, N-(1′-(4-methyl-6-(piperazin-1-yl)pyridin-2-yl)-1′,2′-dihydrospiro[cyclopropane-1,3′-pyrrolo[3,2-c]pyridin]-6′-yl)acetamide trifluoroacetate]	≥ 1000 nM	≤ 10 nM		
COC1CC(Oc2cc(N3CC4(CC4)c4cnc(NC(C)=O)cc43)nc(C(C)(F)F)n2)C1 (stereo not shown) [Example 5, N-(1′-(2-(1,1-difluoroethyl)-6-(3-methoxycyclobutoxy)pyrimidin-4-yl)-1′,2′-dihydrospiro[cyclopropane-1,3′-pyrrolo[3,2-c]pyridin]-6′-yl)acetamide]	10 to 100 nM	≤ 10 nM		
COCCOc1cc(C)cc(N2CC3(CC3)c3cnc(NC(C)=O)cc32)n1 [Example 357, N-(1′-(6-(2-methoxyethoxy)-4-methylpyridin-2-yl)-1′,2′-dihydrospiro[cyclopropane-1,3′-pyrrolo[3,2-c]pyridin]-6′-yl)acetamide trifluoroacetate]	≥ 1000 nM	10 to 100 nM		
CC(=O)Nc1cc2c(cn1)C1(CC1)CN2c1cc(N)nc(C(C)(F)F)n1 [Example 273, N-(1′-(6-amino-2-(1,1-difluoroethyl)pyrimidin-4-yl)-1′,2′-dihydrospiro[cyclopropane-1,3′-pyrrolo[3,2-c]pyridin]-6′-yl)acetamide trifluoroacetate]	10 to 100 nM	≤ 10 nM		
CCc1cc(N2CC3(CC3)c3cnc(NC(C)=O)cc32)nc(C2CCOC2)n1 (stereo not shown) [Example 321, N-(1′-(6-ethyl-2-(tetrahydrofuran-3-yl)pyrimidin-4-yl)-1′,2′-dihydrospiro[cyclopropane-1,3′-pyrrolo[3,2-c]pyridin]-6′-yl)acetamide trifluoroacetate]	10 to 100 nM	≤ 10 nM		
CC(=O)Nc1cc2c(cn1)C1(CC1)CN2c1cc(C)nc(C2CCN(S(C)(=O)=O)CC2)n1 [Example 122, N-(1′-(6-methyl-2-(1-(methylsulfonyl)piperidin-4-yl)pyrimidin-4-yl)-1′,2′-dihydrospiro[cyclopropane-1,3′-pyrrolo[3,2-c]pyridin]-6′-yl)acetamide]	≥ 1000 nM	100 to 1000 nM		
